Results on 10 molecules are retold here after ChEMBL document CHEMBL4196146, “Targeted Isolation of Neuroprotective Dicoumaroyl Neolignans and Lignans from Sageretia theezans Using in Silico Molecular Network Annotation Propagation-Based Dereplication” (J Nat Prod, 2018).

In series [1] the test system is HT-22. The experiment in a line: Cytotoxicity against mouse HT22 cells assessed as effect on cell viability at >25 uM after 2 hrs by MTT assay. In kind it is cell-based. Particulars: ht-22, 2 h. Background: Tetrazolium assays rely on reduction of a dye to a coloured formazan, in cell work by metabolically active cells.
Series [2] has as its system HT-22. The experiment in a line: Neuroprotective activity against glutamate-induced cell death in mouse HT22 cells assessed as increase in cell viability at 1.6 uM pretreated for 2 hrs followed by glutamate-challenge and measured after 20 hrs by MTT assay (reference value: 23 +/- 3.57%). In kind it is functional, cell-based.
Series [3] deals with HT-22. Briefly: Neuroprotective activity against glutamate-induced cell death in mouse HT22 cells assessed as cell viability at 12.5 uM pretreated for 2 hrs followed by glutamate-challenge and measured after 20 hrs by MTT assay (reference value: 23 +/- 3.57%). It is filed as functional. The conditions noted are these: for viability at 12.5 µM: read-out: Activity.

The source made the active and inactive calls. The calls are words filed in the database; no cut-off is given here.

Regarding `COc1cc(C[C@@H](COC(=O)/C=C\c2ccc(O)cc2)[C@H](COC(=O)/C=C\c2ccc(O)cc2)Cc2ccc(O)c(OC)c2)ccc1O`, the Activity result in the series on HT-22 [1] is on record as “Toxic”. Besides, the outcome in the series with HT-22 [2] was Active. Also, the viability at 12.5 µM in the series on HT-22 [3] was determined as 74%.
On to `COc1cc([C@H](O)[C@H](COC(=O)/C=C\c2ccc(O)cc2)Oc2ccc(/C=C/COC(=O)/C=C/c3ccc(O)cc3)cc2OC)ccc1O`, for which the Activity result in the series with HT-22 [1] is “Toxic”. In addition, the outcome with HT-22 [2] and in the series on HT-22 [3] was Active.
As to `COc1cc(C[C@@H](COC(=O)/C=C\c2ccc(O)cc2)[C@H](COC(=O)/C=C/c2ccc(O)cc2)Cc2ccc(O)c(OC)c2)ccc1O`, in the series with HT-22 [1], the Activity result is on record as “Toxic”. For the same molecule, in the series on HT-22 [2], the result was Active. Besides, in the series with HT-22 [3], the viability at 12.5 µM came out at 73%.
For `Cc1c(C)c2c(c(C)c1O)CCC(C)(C(=O)O)O2` (stereo not drawn) [TROLOX], in the series with HT-22 [3], the viability at 12.5 µM worked out at 52%.
Turning to `COc1cc([C@@H](O)[C@H](COC(=O)/C=C\c2ccc(O)cc2)Oc2ccc(/C=C/COC(=O)/C=C/c3ccc(O)cc3)cc2OC)ccc1O`, the Activity result in the series with HT-22 [1] is on record as “Toxic”. In addition, the result in the series with HT-22 [2] and with HT-22 [3] was Active.
`COc1cc([C@@H](O)[C@H](COC(=O)/C=C/c2ccc(O)cc2)Oc2ccc(/C=C/COC(=O)/C=C/c3ccc(O)cc3)cc2OC)ccc1O`: in the series with HT-22 [1], the Activity entry is given as “Toxic”. Also, the result in the series on HT-22 [2] and with HT-22 [3] was Active.
On to `COc1cc([C@H](O)[C@H](COC(=O)/C=C/c2ccc(O)cc2)Oc2ccc(/C=C/COC(=O)/C=C/c3ccc(O)cc3)cc2OC)ccc1O`, for which, in the series with HT-22 [1], the Activity result was “Toxic”. The result in the series on HT-22 [2] and in the series on HT-22 [3] was Active.
Turning to `COc1cc([C@@H](O)[C@H](COC(=O)/C=C/c2ccc(O)cc2)Oc2ccc(/C=C/COC(=O)/C=C\c3ccc(O)cc3)cc2OC)ccc1O`, the Activity entry in the series on HT-22 [1] is listed as “Toxic”. In addition, the result in the series with HT-22 [2] and with HT-22 [3] was Active.
With `COc1cc([C@H](O)[C@H](COC(=O)/C=C/c2ccc(O)cc2)Oc2ccc(/C=C/COC(=O)/C=C\c3ccc(O)cc3)cc2OC)ccc1O`, in the series on HT-22 [1], the Activity result was “Toxic”. For the same molecule, the outcome with HT-22 [2] and in the series on HT-22 [3] was Active.
With `COc1cc(C[C@@H](COC(=O)/C=C/c2ccc(O)cc2)[C@H](COC(=O)/C=C/c2ccc(O)cc2)Cc2ccc(O)c(OC)c2)ccc1O`, the Activity result with HT-22 [1] is listed as “Toxic”. Besides, in the series on HT-22 [2], the outcome was Active. In the series on HT-22 [3], the viability at 12.5 µM was 63%.
